# Laboratory results: the OPERA property sets (Mansouri et al. 2018)
row,logP,SMILES
1,0.73,CC(=O)NNC(=O)Nc1cccc(F)c1
2,0.75,CC(=O)NNC(=O)Nc1cccc(C)c1
3,0.67,CC(=O)NNC(=O)Nc1cccc([N+](=O)[O-])c1
4,1.48,CC(=O)NNC(=O)Nc1cccc(Br)c1
5,1.71,CC(=O)NNC(=O)Nc1cccc(I)c1
6,1.33,CC(=O)NNC(=O)Nc1cccc(Cl)c1
7,0.77,CC(=O)NNC(=O)Nc1ccc([N+](=O)[O-])cc1

# Second part, the compound before the results:
row,SMILES,logP
1,CC(=O)NNC(=O)Nc1ccc(Cl)cc1,1.12
2,CC(=O)NNC(=O)Nc1ccccc1,0.25
3,CC(=O)NNC(=O)Nc1ccc(Br)cc1,1.38
4,CC(=O)NNC(=O)Nc1ccc(F)cc1,0.45
5,CC(=O)NNC(=O)Nc1cccc(C(F)(F)F)c1,1.59
6,CC(=O)NNC(=O)Nc1ccc(N(C)C)cc1,0.11
7,CC(=O)NNC(=O)Nc1ccc(Oc2ccccc2)cc1,2.01
8,COc1cccc(NC(=O)NNC(C)=O)c1,0.33
9,CCOc1ccc(NC(=O)NNC(C)=O)cc1,0.51
10,CC(=O)NNC(=O)Nc1ccc(I)cc1,1.65
11,CC(=O)NNC(=O)Nc1ccc(C(C)(C)C)cc1,2.08
12,CC(=O)NNC(=O)Nc1ccc(C#N)cc1,0.38
13,COc1ccc(NC(=O)NNC(C)=O)cc1,0.11
14,CC(=O)NNC(=O)Nc1ccc(O)cc1,-0.79
15,CC(=O)NNC(=O)Nc1ccc(C)cc1,0.67
